These are literature values, as cited in patent US11291622B2, “Method for dyeing keratinous material, comprising the use of an organosilicon compound, a dyeing compound and a silicon oil” (Henkel AG & Co. KGaA, priority 2018, dated 2022).

Like-named read-outs stand apart in the source and are kept apart here.

Take `CCN(Cc1cccc(S(=O)(=O)[O-])c1)c1ccc(C(=C2C=CC(=[N+](CC)Cc3cccc(S(=O)(=O)[O-])c3)C=C2)c2ccccc2S(=O)(=O)[O-])cc1.[Na+].[Na+]` [Acid Blue 9]: under “25° C.”, the solubility in water result was “more than 20 % by weight”.

With `O=S(=O)([O-])c1ccc(N=Nc2c(O)ccc3ccccc23)cc1.[Na+]` [Acid Orange 7, sodium salt of 4-[(2-hydroxy-1-naphthyl)azo]benzene sulphonate], for the setting “25° C.”, the solubility in water result was “more than 7 g/L”. Consider `Nc1cc(S(=O)(=O)[O-])cc2cc(S(=O)(=O)[O-])c(N=Nc3ccccc3)c(O)c12.[Na+].[Na+]` [Acid Red 33, diantrium salt of 5-amino-4-hydroxy-3-(phenylazo)-naphthalene-2,7-disulphonate], for which the solubility in water result (25° C.) is “about 2.5 g/L”. As to `O=C([O-])C1=NN(c2ccc(S(=O)(=O)[O-])cc2)C(=O)C1N=Nc1ccc(S(=O)(=O)[O-])cc1.[Na+].[Na+].[Na+]` (centres unmarked) [Acid Yellow 23, trisodium salt of 4,5-dihydro-5-oxo-1-(4-sulfophenyl)-4-((4-sulfophenyl)azo)-1H-pyrazole-3-carboxylic acid], where the note is “at about 25° C.”, the “solubility in water” value was “highly soluble in water”.

As for “mixture of the sodium salts of mono- and disulfonic acids of 2-(2-quinolyl)-1H-indene-1,3(2H)-dione [Acid Yellow 3]”, the solubility in water result (25° C.) is “about 20 g/L”.
